Test results published in US20040014797A1, “Pharmaceutical composition comprising metformin and a 5-phenoxyalkyl-2,4-thiazolidinedione-type derivative” (priority 2000, published 2004).

System: nOSTZ rat
Experiment: Antidiabetic effect of the metformin and CRE16336 combination on the nOSTZ rat (glycaemia, insulinaemia, lacticaemia after 4 days of oral treatment)
Format: in vivo
Conditions: for Glucose / Insulin / Lactate: 4 days of oral treatment, blood from the tail 2 h after last administration, metformin 25 mg/kg and/or CRE16336 12.5 mg/kg; for Effect on the hyperglycaemia in the nOSTZ rats (in words): 4 days oral, metformin 25 mg/kg, CRE16336 12.5 mg/kg, alone or combined
Method: The antidiabetic effect of the metformin and CRE16336 combination was studied on the nOSTZ rat, an experimental model of non-insulin-dependent diabetes. This model is produced by intravenous injection of Streptozotocin (STZ) 100 mg/kg, on the day of birth. 38 male nOSTZ rats were used after selection based on the hyperglycaemia value after fasting for 2 h in order to homogenize the groups. […] a group treated with metformin at 25 mg/kg a group treated with CRE16336 at 12.5 mg/kg a group treated with metformin 25 mg/kg and CRE16336 12.5 mg/kg 5 male Wistar rats were incorporated into this study in order to evaluate the degree of hyperglycaemia in the diabetic animals. The products were administered orally in the morning between 8 am and 9 am, for 4 days.

Lactate [mg/dL]	SMILES	Glucose [mg/dL]	Insulin [μU/ml]	Effect on the hyperglycaemia in the nOSTZ rats (in words)
15.4 ± 1.4	CN(C)C(=N)NC(=N)N [Metformin, 1,1-dimethylbiguanide]	160 ± 5	34.1 ± 3.7	does not modify the hyperglycaemia
13.2 ± 0.7	N#Cc1ccc(OCCC2SC(=O)NC2=O)cc1 (centres unmarked) [CRE16336, 5-[2-(4-cyanophenoxy)ethyl]thiazolidine-2,4-dione]	156 ± 6	45.2 ± 5.5	does not modify the hyperglycaemia
